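Where inhibition never reached the appropriate level, the endpoint shown equals the highest concentration tested. Otherwise, values were interpolated linearly from a five-concentration, 48-hour dose response in 96-well plates. Here, GI50 denotes the concentration required for 50% inhibition of growth.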 The source made the active and inactive calls. Rule as the data show it: active = GI50 up to about 1.1 µM and inactive = higher.

This is an account of results in ChEMBL document CHEMBL1201862, “PubChem BioAssay data set” (2004).

Test systems include K562; UACC-257; HOP-92; NCI-H23; IGROV-1; KM12; EKVX; HOP-62; 786-0; HCT-15; NCI-H226; HL-60; MDA-MB-435; DU-145; U-251; NCI-H522; SW-620; T47D; BT-549; RXF 393.
Test in all cases: DTP human tumour cell line panel, 48 h

With `N#C/C(=C\Nc1ccccn1)C(=O)C1CC1`, the GI50 with K562, with UACC-257, in the assay on HOP-92, with NCI-H23, in the assay with IGROV-1 and in the assay with KM12 was > 100 µM (inactive) each time. The GI50 with EKVX is > 100 µM (inactive); in the assay on HOP-62, > 100 µM (inactive); in the assay with 786-0 it was > 100 µM (inactive); in the assay with HCT-15, more than 100 µM; in the assay with NCI-H226, > 100 µM (inactive); with HL-60 it was > 100 µM (inactive). In addition, the GI50 in the assay with MDA-MB-435, with DU-145, with U-251, with NCI-H522, in the assay with SW-620 and in the assay on T47D was > 100 µM (inactive) each time. Also, the GI50 with BT-549 and with RXF 393 was > 100 µM (inactive) throughout.

For the compound `O=C(Nc1sccc1S(=O)(=O)c1ccc(Cl)cc1)c1ccc(F)cc1F`, the GI50 in the assay with K562 is 18 µM (inactive); in the assay on UACC-257 it was > 100 µM (inactive); in the assay with HOP-92, 19.5 µM (inactive); in the assay with NCI-H23, 21 µM (inactive); in the assay with IGROV-1 it was 30.6 µM (inactive); with KM12, > 100 µM (inactive). Moreover, the GI50 with EKVX is 19.6 µM (inactive); in the assay with HOP-62 it was 24.9 µM (inactive); in the assay on 786-0 it was 18.7 µM (inactive); in the assay on HCT-15 it was 66.4 µM; in the assay with NCI-H226 it was 26.7 µM (inactive); in the assay with HL-60, > 100 µM (inactive). For the same compound, the GI50 is > 100 µM (inactive) in the assay with MDA-MB-435; 53.1 µM (inactive) with DU-145; 19.2 µM (inactive) with U-251; 20.3 µM (inactive) with NCI-H522; 73.1 µM (inactive) in the assay with SW-620; 31.8 µM (inactive) in the assay with T47D. In addition, the GI50 was 20.8 µM (inactive) in the assay on BT-549 and 21.7 µM (inactive) in the assay on RXF 393.

In the case of `c1ccc(-c2nnc(SCc3c[nH]c4ccccc34)n2-c2ccccc2)cc1`, the GI50 is 47.5 µM (inactive) in the assay on K562; 23.8 µM (inactive) in the assay with UACC-257; 3.55 µM (inactive) in the assay with HOP-92; 41.4 µM (inactive) in the assay on NCI-H23; 27.2 µM (inactive) in the assay with IGROV-1; 65.3 µM (inactive) in the assay on KM12. In addition, the GI50 is 21.8 µM (inactive) in the assay with EKVX; 19 µM (inactive) with HOP-62; 31.8 µM (inactive) in the assay on 786-0; 45 µM with HCT-15; 22.7 µM (inactive) with NCI-H226; > 100 µM (inactive) with HL-60. In addition, the GI50 in the assay on MDA-MB-435 was 34.6 µM (inactive); in the assay with DU-145 it was 40.3 µM (inactive); in the assay with U-251, 24.2 µM (inactive); in the assay on NCI-H522, 25.9 µM (inactive); with SW-620 it was 85.1 µM (inactive); in the assay with T47D, 20 µM (inactive). Moreover, the values for the GI50 in the assay with BT-549 and in the assay with RXF 393 were 17.3 µM (inactive) and 16.6 µM (inactive), respectively.

Consider `Nc1nc(Cl)cc(NCC2(CO)CCC(O)C2)n1` (stereo not given), for which the GI50 in the assay with K562, in the assay on UACC-257, with HOP-92, in the assay on NCI-H23, with IGROV-1 and in the assay on KM12 was > 100 µM (inactive) throughout. Also, the GI50 was > 100 µM (inactive) with EKVX; > 100 µM (inactive) in the assay with HOP-62; > 100 µM (inactive) with 786-0; more than 100 µM in the assay on HCT-15; > 100 µM (inactive) in the assay with NCI-H226; > 100 µM (inactive) in the assay with HL-60. Further, the GI50 in the assay with MDA-MB-435, in the assay with DU-145, with U-251, with NCI-H522, in the assay with SW-620 and with T47D was > 100 µM (inactive) each time. The GI50 in the assay on BT-549 and in the assay with RXF 393 was > 100 µM (inactive) in each case.
